Test results: patent US20240059671A1, “TYROSINE KINASE 2 (TYK2) DEGRADATION COMPOUNDS AND METHODS OF USE” (CULLGEN (SHANGHAI), INC., priority 2020, published 2024)

Molecular target: TYK2 (Homo sapiens, UniProt P29597)
Assay: TYK2 protein degradation in NOMO-1 cells by immunoblotting
Format: cell-based
Design: endogenous in cells
Conditions: NOMO-1 cells
Protocol: NOMO-1 cells were treated with CPD-155, CPD-157, and CPD-158 at 0.1, 1, 10, 100 and 1000 nM concentrations for 16 hours. […] Data shown that CPD-155, CPD-157, and CPD-158 are very potent at the reduction protein levels of TYK2.
MOLT-4 or NOMO-1 cells were cultured at 37° C. with 5% CO2 in RPMI 1640 Medium supplemented with 10% fetal bovine serum. Cells were authenticated using the short tandem repeat (STR) assays. Mycoplasma test results were negative.
Cultured cells were washed with cold PBS once and lysed in cold RIPA buffer supplemented with protease inhibitors and phosphatase inhibitors (Beyotime Biotechnology). The solutions were then incubated at 4° C. for 30 minutes with gentle agitation to fully lyse cells. Cell lysates were centrifuged at 13,000 rpm for 10 minutes at 4° C. and pellets were discarded. Total protein concentrations in the lysates were determined by BCA assays (Beyotime Biotechnology). Cell lysates were mixed with Laemmli loading buffer to 1× and heated at 99° C. for 5 min. Proteins were resolved on SDS-PAGE and visualized by chemiluminescence. Images were taken by a ChemiDoc MP Imaging system (Bio-Rad). Protein bands were quantitated using the accompanied software provided by Bio-Rad.

Sequence of TYK2 (P29597 whole entry): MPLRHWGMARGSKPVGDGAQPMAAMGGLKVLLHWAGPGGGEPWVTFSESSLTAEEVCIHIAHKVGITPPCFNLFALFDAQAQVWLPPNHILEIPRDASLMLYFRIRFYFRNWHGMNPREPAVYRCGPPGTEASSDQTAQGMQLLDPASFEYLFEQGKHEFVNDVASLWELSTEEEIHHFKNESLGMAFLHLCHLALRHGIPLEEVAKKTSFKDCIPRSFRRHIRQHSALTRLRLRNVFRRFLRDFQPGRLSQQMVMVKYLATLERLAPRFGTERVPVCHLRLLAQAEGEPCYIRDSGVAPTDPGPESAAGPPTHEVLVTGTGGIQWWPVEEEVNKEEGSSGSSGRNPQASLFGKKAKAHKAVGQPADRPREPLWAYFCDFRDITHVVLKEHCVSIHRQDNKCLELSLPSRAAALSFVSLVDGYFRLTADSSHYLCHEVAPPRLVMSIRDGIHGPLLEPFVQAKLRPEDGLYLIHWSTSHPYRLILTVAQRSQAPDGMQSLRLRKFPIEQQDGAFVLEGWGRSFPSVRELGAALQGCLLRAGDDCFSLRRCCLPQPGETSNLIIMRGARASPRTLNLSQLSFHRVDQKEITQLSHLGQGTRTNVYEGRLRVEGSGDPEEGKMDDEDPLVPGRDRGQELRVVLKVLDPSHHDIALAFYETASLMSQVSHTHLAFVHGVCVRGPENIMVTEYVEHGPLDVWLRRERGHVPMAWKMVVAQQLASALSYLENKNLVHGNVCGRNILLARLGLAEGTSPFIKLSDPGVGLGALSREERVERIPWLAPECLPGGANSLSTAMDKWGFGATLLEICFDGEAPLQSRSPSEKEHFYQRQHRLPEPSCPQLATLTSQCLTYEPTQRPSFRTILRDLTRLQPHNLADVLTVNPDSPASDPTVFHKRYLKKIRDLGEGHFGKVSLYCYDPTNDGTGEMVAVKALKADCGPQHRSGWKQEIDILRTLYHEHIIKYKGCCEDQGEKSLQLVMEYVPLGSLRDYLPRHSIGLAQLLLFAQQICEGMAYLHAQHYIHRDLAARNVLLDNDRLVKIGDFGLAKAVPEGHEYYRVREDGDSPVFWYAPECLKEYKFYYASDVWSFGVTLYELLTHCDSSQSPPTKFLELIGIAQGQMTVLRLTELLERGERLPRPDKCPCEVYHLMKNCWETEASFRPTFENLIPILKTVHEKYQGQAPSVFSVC

| TYK2 Degradation (NOMO-1, 100 nM) | TYK2 Degradation (NOMO-1, 10 nM) | Structure (SMILES) |
| --- | --- | --- |
| A (A: ≥60% TYK2 degradation) |  | CNC(=O)c1nnc(Nc2ccc(C(=O)NCCNc3cccc4c3C(=O)N(C3CCC(=O)NC3=O)C4=O)cn2)cc1Nc1cccc(-c2ncn(C)n2)c1OC (stereo not drawn) [CPD-152, 6-((5-((2-((2-(2,6-Dioxopiperidin-3-yl)-1,3-dioxoisoindolin-4-yl)amino)ethyl)carbamoyl)pyridin-2-yl)amino)-4-((2-methoxy-3-(1-methyl-1H-1,2,4-triazol-3-yl)phenyl)amino)-N-methylpyridazine-3-carboxamide] |
| C (C: ≤20% TYK2 degradation) |  | CNC(=O)c1nnc(Nc2ccc(C(=O)NCCCCNc3ccc4c(c3)C(=O)N(C3CCC(=O)NC3=O)C4=O)cn2)cc1Nc1cccc(-c2ncn(C)n2)c1OC (stereo not drawn) [CPD-163, 6-((5-((4-((2-(2,6-dioxopiperidin-3-yl)-1,3-dioxoisoindolin-5-yl)amino)butyl)carbamoyl)pyridin-2-yl)amino)-4-((2-methoxy-3-(1-methyl-1H-1,2,4-triazol-3-yl)phenyl)amino)-N-methylpyridazine-3-carboxamide] |
| A (A: ≥60% TYK2 degradation) | C (C: ≤20% TYK2 degradation) | CNC(=O)c1nnc(Nc2ccc(C#CC3CCN(C(=O)CCC(=O)N[C@H](C(=O)N4C[C@H](O)C[C@H]4C(=O)N[C@@H](C)c4ccc(-c5scnc5C)cc4)C(C)(C)C)CC3)cn2)cc1Nc1cccc(-c2ncn(C)n2)c1OC [CPD-116, 6-((5-((1-(4-(((S)-1-((2S,4R)-4-Hydroxy-2-(((S)-1-(4-(4-methylthiazol-5-yl)phenyl)ethyl)carbamoyl)pyrrolidin-1-yl)-3,3-dimethyl-1-oxobutan-2-yl)amino)-4-oxobutanoyl)piperidin-4-yl)ethynyl)pyridin-2-yl)amino)-4-((2-methoxy-3-(1-methyl-1H-1,2,4-triazol-3-yl)phenyl)amino)-N-methylpyridazine-3-carboxamide] |
| A (A: ≥60% TYK2 degradation) | A (A: ≥60% TYK2 degradation) | CNC(=O)c1nnc(Nc2ccc(N3CCN(C4CCN(C(=O)CCCCCCCC(=O)N[C@H](C(=O)N5C[C@H](O)C[C@H]5C(=O)N[C@@H](C)c5ccc(-c6scnc6C)cc5)C(C)(C)C)CC4)CC3)cn2)cc1Nc1cccc(-c2ncn(C)n2)c1OC [CPD-150, 6-((5-(4-(1-(9-(((S)-1-((2S,4R)-4-hydroxy-2-(((S)-1-(4-(4-methylthiazol-5-yl)phenyl)ethyl)carbamoyl)pyrrolidin-1-yl)-3,3-dimethyl-1-oxobutan-2-yl)amino)-9-oxononanoyl)piperidin-4-yl)piperazin-1-yl)pyridin-2-yl)amino)-4-((2-methoxy-3-(1-methyl-1H-1,2,4-triazol-3-yl)phenyl)amino)-N-methylpyridazine-3-carboxamide] |
| A (A: ≥60% TYK2 degradation) | A (A: ≥60% TYK2 degradation) | CNC(=O)c1nnc(Nc2ccc(C#CC3CN(C(=O)CCCCCC(=O)N[C@H](C(=O)N4C[C@H](O)C[C@H]4C(=O)N[C@@H](C)c4ccc(-c5scnc5C)cc4)C(C)(C)C)C3)cn2)cc1Nc1cccc(-c2ncn(C)n2)c1OC [CPD-124, 6-((5-((1-(7-(((S)-1-((2S,4R)-4-hydroxy-2-(((S)-1-(4-(4-methylthiazol-5-yl)phenyl)ethyl)carbamoyl)pyrrolidin-1-yl)-3,3-dimethyl-1-oxobutan-2-yl)amino)-7-oxoheptanoyl)azetidin-3-yl)ethynyl)pyridin-2-yl)amino)-4-((2-methoxy-3-(1-methyl-1H-1,2,4-triazol-3-yl)phenyl)amino)-N-methylpyridazine-3-carboxamide] |
| A (A: ≥60% TYK2 degradation) | A (A: ≥60% TYK2 degradation) | CNC(=O)c1nnc(Nc2ccc(C(=O)NCCCNc3ccc4c(c3)C(=O)N(C3CCC(=O)NC3=O)C4=O)cn2)cc1Nc1cccc(-c2ncn(C)n2)c1OC (stereo not drawn) [CDD-175, 6-((5-((3-((2-(2,6-dioxopiperidin-3-yl)-1,3-dioxoisoindolin-5-yl)amino)propyl)carbamoyl)pyridin-2-yl)amino)-4-((2-methoxy-3-(1-methyl-1H-1,2,4-triazol-3-yl)phenyl)amino)-N-methylpyridazine-3-carboxamide] |
| A (A: ≥60% TYK2 degradation) |  | CNC(=O)c1nnc(Nc2ccc(C#CC3CCN(C(=O)CCCCCCCC(=O)N[C@H](C(=O)N4C[C@H](O)C[C@H]4C(=O)N[C@@H](C)c4ccc(-c5scnc5C)cc4)C(C)(C)C)CC3)cn2)cc1Nc1cccc(-c2ncn(C)n2)c1OC [CPD-120, 6-((5-((1-(9-(((S)-1-((2S,4R)-4-Hydroxy-2-(((S)-1-(4-(4-methylthiazol-5-yl)phenyl)ethyl)carbamoyl)pyrrolidin-1-yl)-3,3-dimethyl-1-oxobutan-2-yl)amino)-9-oxononanoyl)piperidin-4-yl)ethynyl)pyridin-2-yl)amino)-4-((2-methoxy-3-(1-methyl-1H-1,2,4-triazol-3-yl)phenyl)amino)-N-methylpyridazine-3-carboxamide] |
| A (A: ≥60% TYK2 degradation) | A (A: ≥60% TYK2 degradation) | CNC(=O)c1nnc(Nc2ccc(C#CC3CCN(C(=O)CCCCCCCCC(=O)N[C@H](C(=O)N4C[C@H](O)C[C@H]4C(=O)N[C@@H](C)c4ccc(-c5scnc5C)cc4)C(C)(C)C)CC3)cn2)cc1Nc1cccc(-c2ncn(C)n2)c1OC [CPD-121, 6-((5-((1-(10-(((S)-1-((2S,4R)-4-hydroxy-2-(((5)-1-(4-(4-methylthiazol-5-yl)phenyl)ethyl)carbamoyl)pyrrolidin-1-yl)-3,3-dimethyl-1-oxobutan-2-yl)amino)-10-oxodecanoyl)piperidin-4-yl)ethynyl)pyridin-2-yl)amino)-4-((2-methoxy-3-(1-methyl-1H-1,2,4-triazol-3-yl)phenyl)amino)-N-methylpyridazine-3-carboxamide] |
| A (A: ≥60% TYK2 degradation) | C (C: ≤20% TYK2 degradation) | CNC(=O)c1nnc(Nc2ccc(C(=O)NCCCCC(=O)N[C@H](C(=O)N3C[C@H](O)C[C@H]3C(=O)N[C@@H](C)c3ccc(-c4scnc4C)cc3)C(C)(C)C)cn2)cc1Nc1cccc(-c2ncn(C)n2)c1OC [CPD-140, 6-((5-((5-(((S)-1-((2S,4R)-4-Hydroxy-2-(((S)-1-(4-(4-methylthiazol-5-yl)phenyl)ethyl)carbamoyl)pyrrolidin-1-yl)-3,3-dimethyl-1-oxobutan-2-yl)amino)-5-oxopentyl)carbamoyl)pyridin-2-yl)amino)-4-((2-methoxy-3-(1-methyl-1H-1,2,4-triazol-3-yl)phenyl)amino)-N-methylpyridazine-3-carboxamide] |
| A (A: ≥60% TYK2 degradation) | A (A: ≥60% TYK2 degradation) | CNC(=O)c1nnc(Nc2ccc(N3CCN(C(=O)CCCCCCC(=O)N[C@H](C(=O)N4C[C@H](O)C[C@H]4C(=O)N[C@@H](C)c4ccc(-c5scnc5C)cc4)C(C)(C)C)CC3)cn2)cc1Nc1cccc(-c2ncn(C)n2)c1OC [CDP-112, 6-((5-(4-(8-(((S)-1-((2S,4R)-4-Hydroxy-2-(((S)-1-(4-(4-methylthiazol-5-yl)phenyl)ethyl)carbamoyl)pyrrolidin-1-yl)-3,3-dimethyl-1-oxobutan-2-yl)amino)-8-oxooctanoyl)piperazin-1-yl)pyridin-2-yl)amino)-4-((2-methoxy-3-(1-methyl-1H-1,2,4-triazol-3-yl)phenyl)amino)-N-methylpyridazine-3-carboxamide] |

| Structure (SMILES) | TYK2 Degradation (NOMO-1, 100 nM) | TYK2 Degradation (NOMO-1, 10 nM) |
| --- | --- | --- |
| CNC(=O)c1nnc(Nc2ccc(C#CC3CCN(C(=O)CCCCCC(=O)N[C@H](C(=O)N4C[C@H](O)C[C@H]4C(=O)N[C@@H](C)c4ccc(-c5scnc5C)cc4)C(C)(C)C)CC3)cn2)cc1Nc1cccc(-c2ncn(C)n2)c1OC [CPD-118, 6-((5-((1-(7-(((S)-1-((2S,4R)-4-Hydroxy-2-(((S)-1-(4-(4-methylthiazol-5-yl)phenyl)ethyl)carbamoyl)pyrrolidin-1-yl)-3,3-dimethyl-1-oxobutan-2-yl)amino)-7-oxoheptanoyl)piperidin-4-yl)ethynyl)pyridin-2-yl)amino)-4-((2-methoxy-3-(1-methyl-1H-1,2,4-triazol-3-yl)phenyl)amino)-N-methylpyridazine-3-carboxamide] | A (A: ≥60% TYK2 degradation) | B (B: <60% TYK2 degradation, and >20% TYK2 degradation) |
| CNC(=O)c1nnc(Nc2ccc(C(=O)NCCCCCCC(=O)N[C@H](C(=O)N3C[C@H](O)C[C@H]3C(=O)N[C@@H](C)c3ccc(-c4scnc4C)cc3)C(C)(C)C)cn2)cc1Nc1cccc(-c2ncn(C)n2)c1OC [CPD-142, 6-((5-((7-(((S)-1-((2S,4R)-4-Hydroxy-2-(((S)-1-(4-(4-methylthiazol-5-yl)phenyl)ethyl)carbamoyl)pyrrolidin-1-yl)-3,3-dimethyl-1-oxobutan-2-yl)amino)-7-oxoheptyl)carbamoyl)pyridin-2-yl)amino)-4-((2-methoxy-3-(1-methyl-1H-1,2,4-triazol-3-yl)phenyl)amino)-N-methylpridazine-3-carboxamide] | A (A: ≥60% TYK2 degradation) | B (B: <60% TYK2 degradation, and >20% TYK2 degradation) |
